Reference: patent US20200064357A1, “METHODS FOR DETERMINING AND MONITORING GASTROINTESTINAL INFLAMMATION” (Protagonist Therapeutics, Inc., priority 2016, published 2020)

Columns and labels:
[1] = system: Sprague-Dawley rats; assay: CLDN8 gene expression and colonic score in TNBS-induced rat colitis (Example E5); assay type: in vivo
Method: The claudin family of proteins are components of the tight junction complex. Through expression analysis and colonic scoring, claudins were analyzed as biomarkers for IBD disease severity. […] CLDN8 gene expression was analyzed in a TNBS-induced rat model of […] following the protocols described in Example E1.

[2] = system: Sprague-Dawley rats; assay: IL-23-directed cytokines in distal colon of 5% DSS-induced acute colitis rats, qRT-PCR and ELISA (Example E4); assay type: in vivo, rat
Method: In the second model, acute colitis was induced in Sprague-Dawley rats by ad libitum access to 5% DSS dissolved in drinking water every day until analysis at day five. The animals were grouped into sham+vehicle (PO TID), DSS+vehicle (PO TID), and DSS+Peptide 993 treatment at 61 mg/kg/day (PO TID+in drinking water).
Expression of genes encoding IL-17A, IL-17F, and IL-22 was quantified by quantitative reverse transcription polymerase chain reaction (qRT-PCR), and production of IL-22 protein was quantified by ELISA. Relative expression was normalized to that of HPRT1; and values were determined as geometric mean±95% confidence interval. Protein concentration is shown as mean±SD. Statistical significance was assessed by One-way ANOVA with post-hoc Dunnett's vs. Vehicle control: *p≤0.05; **p≤0.01; ***p≤0.001; ns, not significant.

[3] = DSS rats, 61 mg/kg/day oral, distal colon, normalized to HPRT1

SMILES: CC(=O)NC(CCCNC(=N)N)C(=O)NC1CCSCC(C(=O)NC(Cc2ccc(OCCN)cc2)C(=O)NC(Cc2ccc3ccccc3c2)C(=O)NC2(C(=O)NC(CCC(=O)O)C(=O)NC(CC(N)=O)C(=O)NC(CC(N)=O)C(N)=O)CCOCC2)NC(=O)C(CCC(N)=O)NC(=O)C(Cc2c[nH]c3ccccc23)NC(=O)C(C(C)O)NC(=O)C(CCC(N)=O)NC1=O (stereo not shown) [Peptide 993, Ac-[(D)-Arg]-cyclo[[Abu]-QTWQC]-[Phe[4-(2-aminoethoxy)]]-[2-Nal]-[4-amino-4-carboxy-tetrahydropyran]-ENN-NH2]
- levels of CLDN8 expression, distal colon ([1]; vs vehicle control-treated): restored levels of CLDN8 expression above vehicle control-treated subjects
- colonic score (0-12) ([1]; vs vehicle treated animals): reduced
- abundance of IL-22 protein ([2]; DSS rats, 61 mg/kg/day oral, distal colon, ELISA): significant decreases
- relative expression of gene encoding IL-17A [2, 3]: significant decreases
- relative expression of gene encoding IL-17F [2, 3]: significant decreases
- relative expression of gene encoding IL-22 [2, 3]: significant decreases
- mRNA and/or protein levels of IL-23-directed cytokines in the distal colons ([2]; DSS-treated rats, 61 mg/kg/day PO TID + in drinking water, day five, vs vehicle): significant reduction
